Test results published in ChEMBL document CHEMBL1126391 (Bioorg Med Chem Lett, 1992).

Legend:
H9 = test: In vitro antiviral activity against human T-cell line (H9) infected with HIV-1 IIIB was determined as the lowest concentration required to reduce tissue culture supernatant p24 levels on day 7 by 90%; assay type: functional; settings: H9, 168 h
C8166 [1] = test: In vitro anti-viral activity against C8166 cells (human T-cell line), expressed as the lowest test concentration affording complete protection to the culture (Infectious titre); 0.01-0.1; assay type: functional
[2] = biological target: T1, Human immunodeficiency virus type 1 reverse transcriptase (Human immunodeficiency virus 1, UniProt Q72547); test: Ability to inhibit HIV-1 IIIB reverse transcriptase catalyzed incorporation of tritiated thymidine triphosphate onto a biotinylated rA.dT template primer
[3] = biological target: T1, Human immunodeficiency virus type 1 reverse transcriptase; test: Ability to inhibit HIV-1 IIIB reverse transcriptase catalyzed incorporation of tritiated thymidine triphosphate onto a biotinylated rN.dN template primer
[4] = Concentration determined to be cytotoxic (reduced cell number as compared with controls), was recorded after 7 days incubation in the […] assay system; assay type: cell-based; settings: human, H9 cells (H9/HIV-IIIB assay system); read-out: Cell toxicity
C8166 [5] = test: In vitro anti-viral activity against C8166 cells (human T-cell line), expressed as the lowest test concentration affording complete protection to the culture (Infectious titre); 0.1-1; assay type: functional
C8166 [6] = test: In vitro anti-viral activity against C8166 cells (human T-cell line), expressed as the lowest test concentration affording complete protection to the culture (Infectious titre);. 0.1-0.5; assay type: functional
C8166 [7] = test: In vitro anti-viral activity against C8166 cells (human T-cell line), expressed as the lowest test concentration affording complete protection to the culture (Infectious titre);. 0.1-1; assay type: functional
C8166 [8] = test: In vitro anti-viral activity against C8166 cells (human T-cell line), expressed as the lowest test concentration affording complete protection to the culture (Infectious titre); 0.1-0.5; assay type: functional
C8166 [9] = test: In vitro anti-viral activity against C8166 cells (human T-cell line), expressed as the lowest test concentration affording complete protection to the culture (Infectious titre); assay type: functional

Row | SMILES | IC90 (H9) | IC50 [2] | IC50 [3] | MCC at 168 h [4] | further results
1 | CCN1c2ncccc2-c2ncc(C)n2-c2cccnc21 | 18 nM | 1220 nM | 425 nM | > 100 µM | IC100 (C8166 [1]): 0.01 µM
2 | CCN1c2ncccc2-c2ncc(C)n2-c2ccc(N(C)C)nc21 | 250 nM | 2400 nM | 1100 nM | > 100 µM | IC100 (C8166 [5]): 0.1 µM
3 | CCN1c2ncccc2-c2nccn2-c2cccnc21 | 70 nM | 11200 nM | 775 nM | 50 µM | IC100 (C8166 [6]): 0.1 µM
4 | CCN1c2ncccc2-c2nnc(C)n2-c2cccnc21 |  | 38900 nM |  |  | 
5 | CCN1c2ncccc2-c2nccn2-c2ccc(O)nc21 |  | 23900 nM | 6980 nM |  | 
6 | CCN1c2ncccc2-c2nccn2-c2ccc(N3CCCC3)nc21 | 82 nM | 3900 nM | 2000 nM | 100 µM | IC100 (C8166 [5]): 0.1 µM
7 | Cc1nnc2n1-c1cccnc1N(C1CC1)c1ncccc1-2 |  | 11500 nM | 7820 nM |  | 
8 | CCN1c2ncccc2-c2nccn2-c2c(C)ccnc21 | 550 nM | 1620 nM | 245 nM | > 100 µM | IC100 (C8166 [7]): 0.1 µM
9 | Cc1ccnc2c1NC(=O)c1cccnc1N2C1CC1 [NEVIRAPINE] | 78 nM |  |  | > 10 µM | IC100 (C8166 [8]): 0.1 µM
10 | CCc1cnc2n1-c1cccnc1N(CC)c1ncccc1-2 |  | 5630 nM | 1100 nM |  | 
11 | CCN1c2ncccc2-c2nnc(-c3ccccc3)n2-c2cccnc21 |  | > 100000 nM |  |  | 
12 | CCN1c2ncccc2-c2ncc(C)n2-c2ccc(N3CCCC3)nc21 |  | 2700 nM | 1770 nM |  | 
13 | CCN1c2ncccc2-c2nnnn2-c2c(C)ccnc21 |  | 75100 nM | 6720 nM |  | 
14 | CCN1c2ncccc2-c2nncn2-c2cccnc21 |  | 72800 nM |  |  | 
15 | CCN1c2ncccc2-c2nncn2-c2c(C)ccnc21 |  | 44500 nM |  |  | 
16 | CCN1c2ncccc2-c2nnc(C(C)C)n2-c2cccnc21 |  | > 100000 nM | 62600 nM |  | 
17 | CCN1c2ncccc2-c2nnc(C)n2-c2c(C)ccnc21 |  | 198000 nM |  |  | 
18 | CCN1c2ncccc2-c2nc(C)cn2-c2cccnc21 |  | 11200 nM | 2750 nM |  | 
19 | CCN1c2ncccc2C(=O)Nc2c(C)ccnc21 |  | 10300 nM | 1500 nM |  | 
20 | CCN1c2ncccc2-c2ncc(C)n2-c2ccc(O)nc21 | 110 nM | 12200 nM | 3200 nM | > 100 µM | IC100 (C8166 [5]): 0.1 µM
21 | Cc1ccnc2c1-n1ccnc1-c1cccnc1N2C1CC1 |  | 2050 nM | 217 nM |  | 
22 | CCN1c2ncccc2-c2nccn2-c2ccc(N(C)C)nc21 | 41 nM | 3900 nM | 2190 nM | 10 µM | IC100 (C8166 [9]): 0.1 µM
23 | CCc1nnc2n1-c1cccnc1N(CC)c1ncccc1-2 |  | 56600 nM | 20200 nM |  | 
24 | CCN1c2ncccc2-c2ncc(C)n2-c2ccc(OC)nc21 | 2.3 nM | 190 nM | 156 nM | > 10 µM | IC100 (C8166 [9]): 0.01 µM
25 | CCN1c2ncccc2-c2nccn2-c2ccc(OC)nc21 | 8 nM | 598 nM | 258 nM | > 10 µM | IC100 (C8166 [9]): 0.1 µM
26 | CCN1c2ncccc2-c2nnc(CN(C)C)n2-c2cccnc21 |  | > 100000 nM | > 100000 nM |  | 
